Measurements taken from US6426355B1, “Heterocyclic carboxamide-containing thiourea inhibitors of herpes viruses containing phenylenediamine group” (American Home Products, priority 1998, dated 2002).
In brackets after ≈: the same amount, converted by molar mass.

Experiments:
HSV-1 = assay: HSV Antiviral (ELISA) assay; assay type: cell-based; details: for IC50: Human alphaherpesvirus 1, HSV-1 in Vero cells, read-out: IC50 (ug/ml) HSV; for IC50 (ug/ml) HSV: HSV-1 in Vero cells
In short: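 Vero cells in DMEM/2% FBS pretreated with compound 30 min before HSV-1 infection (MOI 0.006), then ~24 h at 37 °C. Viral gD detected by ELISA with β-galactosidase secondary and 4-methylumbelliferyl-galactoside (ex 365/em 450 nm); IC50 from fluorescence versus untreated infected cells.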

VZV strain Ellen = assay: VZV Antiviral (ELISA) assay; assay type: cell-based; details: for inhibition at 10 µg/mL: Human alphaherpesvirus 3, read-out: % inhibition 10 ug/ml VZV, at 10 ug/ml, VZV strain Ellen in HFF cells; for IC50: Human alphaherpesvirus 3, VZV strain Ellen in HFF cells, read-out: IC50 (ug/ml) VZV; for IC50 (ug/ml) VZV / % inhibition 10 ug/ml VZV: VZV strain Ellen in HFF cells; for % inhibition 10 ug/ml VZV: at 10 ug/ml
In short: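 Low-MOI (<0.1) Ellen infection of HFF overnight; cell mix plated 3.5×10^4/well with compound, DMEM + 2% FBS, 3 d, 37° C, 5% CO2. Fix, anti-gpII mAb ELISA, MUG substrate, fluorescence. IC50 vs compound-free signal.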

[1] = tested on: HCMV recombinant mutant virus (RV145); assay: HCMV microtiter plate assay (beta-glucuronidase reporter); assay type: cell-based, Human Cytomegalovirus; details: for IC50: Human betaherpesvirus 5, Fibroblast, read-out: IC50 (ug/ml) HCMV; for IC50 (ug/ml) HCMV: HCMV in human foreskin fibroblasts
In short: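 Human foreskin fibroblasts were infected with RV145 in the presence of inhibitor. β-glucuronidase under a viral promoter served as the replication marker. At 96 h post-infection, lysates in pH 7.0 phosphate with Triton X-100/sarkosyl were assayed colorimetrically or fluorometrically, and IC50 was estimated from varying inhibitor amounts.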

Row | Compound | IC50 (HSV-1) | inhibition at 10 µg/mL (VZV strain Ellen) | IC50 [1] | IC50 (VZV strain Ellen) | IC50 (ug/ml) HSV (HSV-1) | IC50 (ug/ml) VZV (VZV strain Ellen) | % inhibition 10 ug/ml VZV (VZV strain Ellen) | IC50 (ug/ml) HCMV [1]
1 | O=C(Nc1ccc(NC(=S)Nc2ccc(I)c(Cl)c2)cc1)c1ccccc1F [Example 966, N-{4-[3-(3-Chloro-4-iodo-phenyl)-thioureido]-phenyl} -2-fluoro-benzamide] | > 10 µg/mL | 42% | 0.02 µg/mL (≈ 0.038 µM) | – | – | – | – | –
2 | Cc1nc(C(=O)Nc2ccc(NC(=S)Nc3ccc(Cl)c(Cl)c3)cc2)cs1 [Example 1139, 2-Methyl-thiazole-4-carboxylic acid {4-[3-(3,4-dichloro-phenyl)-thioureido]-phenyl}-amide] | 3.7 µg/mL (≈ 8.46 µM) | – | 1.2 µg/mL (≈ 2.74 µM) | 6 µg/mL (≈ 13.7 µM) | – | – | – | –
3 | [1,2,3]Thiadiazole-4-carboxylic acid {4-[3-(3,4,5-chloro-4-isoxazol-5-yl-phenyl)-thioureido]-phenyl}-amide [Example 990] | – | – | – | – | 8 µg/mL | 4.5 µg/mL | 99% | 0.011 µg/mL
4 | CC(NC(=S)Nc1ccc(NC(=O)c2ccsc2)cc1)c1ccc(F)cc1 (stereo not drawn) [Example 1129, Thiophene-3-carboxylic acid (4-{3-[1-(4-fluoro-phenyl)-ethyl]-thioureido}-phenyl)-amide] | 1.9 µg/mL (≈ 4.76 µM) | – | 1 µg/mL (≈ 2.5 µM) | > 10 µg/mL | – | – | – | –
5 | Cc1ccc(NC(=S)Nc2ccc(NC(=O)c3csnn3)cc2)cc1Cl [Example 230] | – | – | – | – | >10 µg/mL | >10 µg/mL | – | 0.015 µg/mL (≈ 0.0371 µM)
6 | O=C(Nc1ccc(NC(=S)Nc2ccc(I)c(Cl)c2)cc1)c1csnn1 [Example 971, [1,2,3]Thiadiazole-4-carboxylic acid {4-[3-(3-chloro-4-iodo-phenyl)-thioureido]-phenyl} -amide] | > 10 µg/mL | 9% | 0.013 µg/mL (≈ 0.0252 µM) | > 10 µg/mL | – | – | – | –
7 | CN(C)c1ccc(Cl)cc1NC(=S)Nc1ccc(NC(=O)c2csnn2)cc1 [Example 500] | – | – | – | – | >10 µg/mL | >10 µg/mL | 48% | 0.021 µg/mL (≈ 0.0485 µM)
8 | COc1cc(OC)c(NC(=S)Nc2ccc(NC(=O)c3cnns3)cc2)cc1Cl [Example 323] | – | – | – | – | 3 µg/mL (≈ 6.67 µM) | >10 µg/mL | 45% | 0.03 µg/mL (≈ 0.0667 µM)
9 | CN1CCC(N(C)c2ccc(NC(=S)Nc3ccc(NC(=O)c4csnn4)cc3)cc2Cl)C1 (stereo not drawn) [Example 341] | – | – | – | – | 2 µg/mL (≈ 3.98 µM) | >10 µg/mL | 50% | 0.15 µg/mL (≈ 0.299 µM)
10 | O=C(Nc1ccc(NC(=S)Nc2ccc3[nH]ncc3c2)cc1)c1ccco1 [Example 481] | – | – | – | – | >10 µg/mL | >10 µg/mL | 32% | 0.5 µg/mL (≈ 1.32 µM)
11 | COc1cc(OC)c(NC(=S)Nc2ccc(NC(=O)c3csnn3)cc2)cc1Cl [Example 173] | – | – | – | – | >10 µg/mL | >10 µg/mL | 31% | 0.08 µg/mL (≈ 0.178 µM)
12 | O=C(CN1CCCC1)Nc1ccc(NC(=S)Nc2ccc(NC(=O)c3ccco3)cc2)cc1Cl [Example 416] | – | – | – | – | >10 µg/mL | >15 µg/mL | 87% | 0.25 µg/mL (≈ 0.502 µM)
13 | Cc1ccc(CCNC(=S)Nc2ccc(NC(=O)c3ccco3)cc2)cc1 [Example 605] | – | – | – | – | >10 µg/mL | 10 µg/mL (≈ 26.4 µM) | – | 0.062 µg/mL (≈ 0.163 µM)
14 | COc1cc(OC)c(NC(=S)Nc2ccc(NC(=O)c3cccn3C)cc2)cc1Cl [Example 147] | – | – | – | – | 10 µg/mL (≈ 22.5 µM) | >10 µg/mL | 42% | >50 µg/mL
15 | COc1c(Cl)cc(NC(=S)Nc2ccc(NC(=O)c3csnn3)cc2)cc1Cl [Example 201] | – | – | – | – | >10 µg/mL | 8 µg/mL (≈ 17.6 µM) | 78% | 0.023 µg/mL (≈ 0.0506 µM)
16 | COc1ccc(NC(=S)Nc2ccc(NC(=O)c3csnn3)cc2)cc1Cl [Example 888, [1,2,3]Thiadiazole-4-carboxylic acid {4-[3-(3-chloro-4-methoxy-phenyl)-thioureido]-phenyl}-amide] | 6 µg/mL (≈ 14.3 µM) | 31% | 0.06 µg/mL (≈ 0.143 µM) | > 10 µg/mL | – | – | – | –
17 | CC(C)c1nc(C(=O)Nc2ccc(NC(=S)Nc3cc(C(F)(F)F)cc(C(F)(F)F)c3)cc2)cs1 [Example 1133, 2-Isopropyl-thiazole-4-carboxylic acid {4-[3-(3,5 bis-trifluoromethyl-phenyl)-thioureido]-phenyl}-amide] | 6 µg/mL (≈ 11.3 µM) | – | 1.5 µg/mL (≈ 2.82 µM) | > 10 µg/mL | – | – | – | –
18 | CC(CCc1ccccc1)NC(=S)Nc1ccc(NC(=O)c2csnn2)cc1 (stereo not drawn) [Example 646] | – | – | – | – | >10 µg/mL | 2.5 µg/mL (≈ 6.07 µM) | – | 0.03 µg/mL (≈ 0.0729 µM)

Row | Compound | IC50 (HSV-1) | inhibition at 10 µg/mL (VZV strain Ellen) | IC50 [1] | IC50 (VZV strain Ellen) | IC50 (ug/ml) HSV (HSV-1) | IC50 (ug/ml) VZV (VZV strain Ellen) | % inhibition 10 ug/ml VZV (VZV strain Ellen) | IC50 (ug/ml) HCMV [1]
19 | CN(C)c1cc(Cl)cc(NC(=S)Nc2ccc(NC(=O)c3ccco3)cc2)c1 [Example 524] | – | – | – | – | 4 µg/mL (≈ 9.64 µM) | 2 µg/mL (≈ 4.82 µM) | 95% | 0.055 µg/mL (≈ 0.133 µM)
20 | CC(O)c1cccc(NC(=S)Nc2ccc(NC(=O)c3ccco3)cc2)c1 (stereo not drawn) [Example 472] | – | – | – | – | >10 µg/mL | >10 µg/mL | 31% | 0.8 µg/mL (≈ 2.1 µM)
21 | COc1cc(OC)c(NC(=S)Nc2ccc(NC(=O)c3cccnc3)cc2)cc1Cl [Example 160] | – | – | – | – | 2.5 µg/mL (≈ 5.64 µM) | >10 µg/mL | 27% | >10 µg/mL
22 | Cc1ccc(NC(=S)Nc2ccc(NC(=O)c3ccco3)cc2)cc1Cl [Example 233] | – | – | – | – | >10 µg/mL | >10 µg/mL | 30% | 0.09 µg/mL (≈ 0.233 µM)
23 | O=C(Nc1ccc(NC(=S)NCc2ccc(Cl)c(Cl)c2)cc1)c1csnn1 [Example 537] | – | – | – | – | 9 µg/mL (≈ 20.5 µM) | 10 µg/mL (≈ 22.8 µM) | – | 0.003 µg/mL (≈ 0.00684 µM)
24 | O=C(Nc1ccc(NC(=S)NCCc2ccc(F)cc2)cc1)c1ccco1 [Example 561] | – | – | – | – | >10 µg/mL | 8 µg/mL (≈ 20.9 µM) | – | 0.05 µg/mL (≈ 0.13 µM)
25 | CC(C)c1cccc(NC(=S)Nc2ccc(NC(=O)c3ccco3)cc2)c1 [Example 451] | – | – | – | – | 8 µg/mL (≈ 21.1 µM) | >10 µg/mL | – | 0.15 µg/mL (≈ 0.395 µM)
26 | O=C(Nc1ccc(NC(=S)NCCc2ccc(Br)cc2)cc1)c1csnn1 [Example 606] | – | – | – | – | >10 µg/mL | >10 µg/mL | – | 0.0023 µg/mL (≈ 0.00497 µM)
27 | O=C(Nc1ccc(NC(=S)Nc2cccc(Cl)c2Cl)cc1)c1csnn1 [Example 979, [1,2,3]Thiadiazole-4-carboxylic acid {4-[3-(2,3-dichloro-phenyl)-thioureido]-phenyl} -amide] | 8 µg/mL (≈ 18.9 µM) | 88% | 0.19 µg/mL (≈ 0.448 µM) | 12 µg/mL (≈ 28.3 µM) | – | – | – | –
28 | CSc1ccc(NC(=S)Nc2ccc(NC(=O)c3ccccn3)cc2)cc1Cl [Example 351] | – | – | – | – | 3 µg/mL (≈ 6.99 µM) | 3.5 µg/mL (≈ 8.16 µM) | 90% | 0.3 µg/mL (≈ 0.699 µM)
29 | COc1cc(OC)c(NC(=S)Nc2ccc(NC(=O)c3nnsc3-c3ccccc3)cc2)cc1Cl [Example 281] | – | – | – | – | >10 µg/mL | >10 µg/mL | 31% | >10 µg/mL
30 | COc1cc(OC)c(NC(=S)Nc2ccc(NC(=O)c3ccc(Cl)o3)cc2)cc1Cl [Example 163] | – | – | – | – | 3 µg/mL (≈ 6.43 µM) | >10 µg/mL | 30% | 7 µg/mL (≈ 15 µM)
31 | O=C(Nc1ccc(NC(=S)NCCc2ccc(Br)cc2)cc1)c1ccco1 [Example 604] | – | – | – | – | >10 µg/mL | 10 µg/mL (≈ 22.5 µM) | – | 0.025 µg/mL (≈ 0.0563 µM)
32 | CC(NC(=S)Nc1ccc(NC(=O)c2ccc3ccccc3n2)cc1)c1ccc(F)cc1 (stereo not drawn) [Example 796] | – | – | – | – | >10 µg/mL | >7.5 µg/mL | – | 4 µg/mL (≈ 9 µM)
33 | COc1cc(OC)c(NC(=S)Nc2ccc(NC(=O)c3ccco3)cc2)cc1Br [Example 879, Furan-2-carboxylic acid {4-[3-(5-bromo-2,4-dimethoxy-phenyl)-thioureido]-phenyl}-amide] | 4 µg/mL (≈ 8.4 µM) | 65% | 0.3 µg/mL (≈ 0.63 µM) | 10 µg/mL (≈ 21 µM) | – | – | – | –
34 | O=C(CN1CCSCC1)Nc1ccc(NC(=S)Nc2ccc(NC(=O)c3ccco3)cc2)cc1Cl [Example 406] | – | – | – | – | >10 µg/mL | >10 µg/mL | 28% | 0.12 µg/mL (≈ 0.226 µM)
35 | O=C(Nc1ccc(NC(=S)Nc2ccc(OC(F)(F)F)c(Br)c2)cc1)c1csnn1 [Example 550] | – | – | – | – | >10 µg/mL | >10 µg/mL | – | 0.013 µg/mL (≈ 0.0251 µM)
